The record followed here is ChEMBL document CHEMBL3301555, “MMV Malaria Box screening in pLDH viability assay against Plasmodium falciparum gametocytes”.

This assay concerns Plasmodium falciparum. Briefly: MMV: Measure of pLDH activity as indication of parasite viability. Gametocytogenesis of 3D7 Plasmodium falciparum strain was induced in vitro and asexual parasites were depleted with N-acetylglucosamine. Gametocytes were treated with dihydroartemisinin, epoxomicin, methylene blue, primaquine, puromycin or chloroquine in 96-well plates and the pLDH activity was evaluated using a modified Makler protocol. Mosquito infectivity was measured by the standard membrane feeding assay. In kind it is functional. Also noted: concentration or dose not given beside the values.
In the case of `CCCn1c(=N)c(C(=O)NC2CCCCC2)cc2c(=O)n3cccc(C)c3nc21`, the “Growth Inhibition” value came to 2.4486%.
The figure for `CCc1ccc(Nc2cc(C)nc3nc(C)nn23)cc1` is -2.3802%; for `COc1ccc2c(c1OC)C(=O)N1c3ccccc3N=C(c3ccc(C)cc3)CC21` (stereo not drawn) it is 14.488%.
Then `O=C(CCc1ccco1)NC1CCN(CC2(c3ccc(Cl)cc3)CCC2)CC1`, with 18.8072%.
The figure for `COc1ccc(OC)c(C2C3=C(CC(C)(C)CC3=O)N(c3ccc(Cl)c(Cl)c3)C3=C2C(=O)CC(C)(C)C3)c1` is 21.894%.
As to `CC1CCCCN1CCCNC(=O)c1ccc2c(c1)sc1nc(-c3ccc(F)cc3)cn12` (stereo not drawn), the “Growth Inhibition” value is recorded as 16.9994%.
Then `Cc1ccc(-c2cc3c(SCC(=O)Nc4cc(C(F)(F)F)ccc4Cl)nccn3n2)cc1`, with -10.2658%; and `COc1ccc(C(O)(CCC(C)C)C(CN2CCOCC2)c2ccc(Cl)cc2)cc1.Cl` (stereo not drawn), with 9.238%; and `Cc1cc(N(C)C)nc(Nc2ccc(NC(=O)Nc3ccccc3)cc2)n1`, with 16.1034%.
The figure for `Cn1c(C(=O)c2cccc3ccccc23)nc2ccccc21` is -3.612%; for `Cc1ccc(OCCCCCCNCCO)c(C)c1` it is 3.067%.
Then `Cc1cc(NC(=O)c2ccc(-c3ccccc3)cc2)no1`, with 4.97%.
Turning to `O=C(Nc1cccc(C(F)(F)F)c1)c1cc(Cl)ccc1O`, the “Growth Inhibition” value stood at 14.365%.
Turning to `COc1cc2c(cc1OC)C1=NNC(=O)C1=NC(C)(C)C2`, the “Growth Inhibition” value is 35.8316%.
The figure for `CCOC(=O)c1c[nH]c2c(CC)cccc2c1=O` is 3.164%; for `O=C(Nc1ccc(CN2CCOCC2)cc1)c1ccc(-c2cc(Cl)ccc2Cl)o1` it is 12.3128%.
On to `OC1=C2C(=Nc3ccccc3SC2c2ccc(Br)cc2)c2ccccc21` (stereo not drawn), for which the “Growth Inhibition” value is on record as 30.3526%.
The figure for `COc1ccccc1CNC(=O)CCn1c(=O)[nH]c2ccsc2c1=O` is -5.0228%.
Then `Cl.OC(CNCc1ccccc1)Cn1c2ccccc2c2ccccc21` (stereo not drawn), with 33.103%; and `Cc1cc(NC(=O)c2cccc(C(F)(F)F)c2)n(-c2nc(-c3ccc4c(c3)OCO4)cs2)n1`, with 1.3202%; and `CCOc1ccc2nc(C)cc(Nc3ccc(N(C)C)cc3)c2c1.Cl`, with 13.9954%.
Then `CC1CC(C)CN(C(=O)c2ccc(Cl)cc2Cl)C1` (stereo not drawn), with -2.8594%; and `O=[N+]([O-])c1ccc(C=NNc2nc3ccccc3[nH]2)cc1`, with -2.3354%.
Regarding `COc1cccc(NC(=O)Cn2c(C)c(C#N)c3ccccc32)c1`, the “Growth Inhibition” value is listed as 15.89%.
The figure for `COc1ccc2c(=O)cc(C(Cl)(Cl)Cl)oc2c1` is 12.9182%; for `Oc1c2c(nc3cc(-c4ccccc4)nn13)CCCC2` it is 5.0802%.
Then `COc1cc(-c2nc(-c3ccccc3)c(-c3ccccc3)[nH]2)cc(OC)c1O`, with 13.9122%; and `CCN1CCCC1CNc1[nH]cnc2c3cc(Cl)ccc3nc1-2` (stereo not drawn), with 8.5536%.
The figure for `Cc1cc(Nc2ccc(OCc3ccccc3)cc2)nc2cc(O)ccc12` is 36.4644%.
Regarding `Cc1cc(=O)oc2c1ccc1oc(C(=O)c3ccccc3)c(C)c12`, the “Growth Inhibition” value stood at 19.4%.
Then `COc1cc(OC)cc(N2C(=O)N(Cc3ccc(C(C)(C)C)cc3)c3ccccc3S2(=O)=O)c1`, with 5.995%; and `O=C1c2ccccc2-c2nnc(-c3ccc(Br)cc3)cc21`, with 29.9528%.
The figure for `Clc1ccc2c(N3CCCC3)ccnc2c1` is 18.4524%.
For `Cc1cccc(Nc2nc(N)c3ccccc3n2)c1.Cl`, the “Growth Inhibition” value is -0.3732%.
Take `O=C(c1ccccc1F)N(Cc1ccc(Cl)cc1)c1ccccn1`: the “Growth Inhibition” value is 9.2554%.
The figure for `CCCCCCOC(=O)C1=C(C)NC(=O)NC1c1ccccc1F` (stereo not drawn) is 6.2916%.
Take `CCCc1c(CC)c(=N)c2ccccc2n1C`: the “Growth Inhibition” value stood at 4.7322%.
Take `CN(C)CCNc1cc(-c2ccccc2)nc2ccccc12`: the “Growth Inhibition” value was determined as 2.7026%.
Consider `CCOc1cccc(C(=O)Nc2ccc(-c3nc4ccccc4[nH]3)cc2)c1`, for which the “Growth Inhibition” value is on record as 7.5178%.
As to `Cc1ccc(Nc2nc(NCCO)c3ccccc3n2)cc1C`, the “Growth Inhibition” value amounted to 11.5812%.
Then `COc1ccc(CN2CCCC(C(=O)c3ccc(C(F)(F)F)cc3)C2)c(O)c1` (stereo not drawn), with 43.708%; and `CCn1c(SCC(=O)Nc2cc(C(F)(F)F)ccc2Cl)nc2ccccc2c1=O`, with -1.2952%; and `COc1cccc(Nc2nc(N)c3ccccc3n2)c1.Cl`, with 17.598%.
The figure for `CCc1ccc(CNCC(O)c2ccccc2)cc1.Cl` (stereo not drawn) is 26.7%; for `Cc1ccc(Nc2nc(N)c3ccccc3n2)cc1Cl` it is 23.2734%; for `CCOC(=O)c1cnc2ccc(OC)cc2c1Nc1ccc(N2CCN(C)CC2)cc1` it is 5.5888%.
With `Oc1ccc(Cl)cc1CNc1nc2ccccc2[nH]1`, the “Growth Inhibition” value stood at 5.249%.
As for `CCCCCC(=O)N1c2ccccc2N=C2CC(c3ccc(OC)c(OC)c3)CC(O)=C2C1c1ccc(C(F)(F)F)cc1` (stereo not drawn), the “Growth Inhibition” value is recorded as 33.4948%.
The figure for `COc1cc(CNCCc2ccc(Cl)cc2)cc(OC)c1O` is 17.1102%; for `Br.CCN(CC)S(=O)(=O)c1ccc(-c2csc(Nc3ccc(C)c(C)c3)n2)cc1` it is 9.3564%; for `CCOc1cc2c(cc1OCC)C(c1cc(Cl)c(O)c(OCC)c1)NCC2` (stereo not drawn) it is 16.0386%.
As to `CCCCC(O)(c1ccc(Cl)cc1)C(CN1CCOCC1)c1ccc(Cl)cc1.Cl` (stereo not drawn), the “Growth Inhibition” value is listed as 3.244%.
The figure for `Nc1ccn([C@@H]2O[C@H](CO)[C@@H](O)[C@H]2O)c(=O)n1` [CYTIDINE] is 13.5248%; for `CC(C)c1ccc(CNCC(O)c2ccccc2)cc1.Cl` (stereo not drawn) it is 37.0308%; for `CCOc1ccc(-c2nc(NC(=O)c3cccc(S(C)(=O)=O)c3)sc2C)cc1` it is 10.5858%.
The figure for `O=C(NC1CCCCC1)C(c1cccs1)N(CCc1ccccc1)C(=O)c1ccco1` (stereo not drawn) is 7.269%.
Then `O=C(Nc1ccc(N2CCN(Cc3ccccc3)CC2)cc1)c1cccs1.O=C(O)C(F)(F)F`, with -8.6144%; and `COc1ccc(C=C2SC(=N)N(c3ccccc3OC)C2=O)cc1`, with 26.57%; and `CCN1CCN(Cc2ccc(NC(=O)c3cc4ccc5cccnc5c4[nH]3)cc2)CC1`, with 4.9364%.
`COc1cc(SC)ccc1C(=O)N1CCCC(C)C1` (stereo not drawn): the “Growth Inhibition” value is listed as 14.445%.
Then `CCOC(=O)c1cnc2c(C)cccc2c1Nc1ccc(C(C)=O)cc1`, with 14.9964%; and `O=C(NCc1ccco1)C1CCN(S(=O)(=O)c2ccc(Cl)cc2)CC1`, with 3.8942%.
`CCCC(c1nnnn1C1CCCCC1)N1CCN(C(=O)c2ccco2)CC1.Cl` (stereo not drawn): the “Growth Inhibition” value worked out at 10.3688%.
The figure for `Cl.Cn1c(=O)n(C)c2cc(CNCCNc3ccnc4cc(Cl)ccc34)ccc21` is 35.6028%.
Then `COc1ccc(-c2nc3cc(Cc4ccc5[nH]c(-c6ccc(OC)cc6)nc5c4)ccc3[nH]2)cc1`, with 4.7376%.
The figure for `CCCCOC(=O)c1ccc(Nc2cc(C)nc3ccc(OC)cc23)cc1` is 15.2218%; for `Cc1ccc(-c2cc(C(=O)Nc3ccc(S(=O)(=O)N4CCCCC4)cc3)[nH]n2)c(O)c1` it is 28.7504%; for `CCN1CCN(c2c(C(=O)c3ccccc3)cnc3cc(OC)c(OC)cc23)CC1` it is -1.335%.
For `COc1cccc(-c2nn(C)c3sc(C(=O)NCCN4CCN(c5ccccc5F)CC4)cc23)c1`, the “Growth Inhibition” value is on record as 20.4084%.
For the molecule `Cc1cc(Nc2ccc3ccccc3c2)n2ncnc2n1`, the “Growth Inhibition” value is -5.4308%.
Then `COc1cc2cc(C(=O)Nc3ccccc3)c(N)nc2cc1OC`, with 2.432%; and `COc1ccc2nc(C)cc(Nc3ccccc3O)c2c1`, with 10.6942%.
The figure for `CC(C)(C)c1ccc(C2CC3=Nc4ccccc4N(C(=O)c4ccccc4Cl)C(c4ccc(F)cc4)C3=C(O)C2)cc1` (stereo not drawn) is 12.8628%; for `O=C(O)C1Cc2c([nH]c3ccccc23)C(c2ccc(Cl)cc2Cl)N1` (stereo not drawn) it is 8.0448%.
The figure for `COc1cccc(Cn2c(Oc3ccccc3)nc3c2c(=O)n(C)c(=O)n3C)c1` is 5.4442%; for `Cc1ccc(C2CC(C(F)(F)F)n3nc(C(=O)N4CCN(C(c5ccccc5)c5ccccc5)CC4)cc3N2)cc1` (stereo not drawn) it is 4.7565%.
Consider `C=CCc1c(C)nc2ccccc2c1O`, for which the “Growth Inhibition” value came out at 8.3394%.
Consider `Cc1ccccc1OCCSc1nc2ccc(NC(=O)c3cccs3)cc2s1`, for which the “Growth Inhibition” value was 6.631%.
The figure for `CCOc1ccc(Nc2ccnc3cc(Cl)ccc23)cc1` is 2.6298%.
Then `CCCCCCc1cc2cc(-c3csc(C=Cc4ccccc4)n3)c(=O)oc2cc1O`, with 20.6338%.
The figure for `CC(C)(C)c1ccc(C(=O)Nc2c3c(nn2-c2cccc(Cl)c2)CSC3)cc1` is 9.0986%.
On to `Oc1ccc2ccccc2c1CNc1nc2ccccc2[nH]1`, for which the “Growth Inhibition” value came to 8.4186%.
In the case of `O=C(NNc1cc(N2CCCC2)nc(N2CCCC2)n1)c1ccccc1`, the “Growth Inhibition” value stood at 2.419%.
The figure for `CSC1=NC(=Nc2c(C)cccc2C)C2(CCC(C(C)(C)C)CC2)N1c1ccc(Cl)cc1` (stereo not drawn) is -2.9236%; for `COc1ccc(Nc2cc(C)nc(NCc3ccccc3)n2)cc1` it is 8.4962%.
Then `CCc1ccc(Nc2cc(C)c3ccc(O)cc3n2)cc1.Cl`, with 27.662%; and `COc1ccc(CCN2C(=O)c3[nH]nc(-c4cc(Cl)c(C)cc4O)c3C2c2ccccc2F)cc1` (stereo not drawn), with 16.338%; and `Cc1ccc(-c2nc3ccccc3o2)cc1NCc1cc(Cc2ccccc2)ccc1O`, with 21.1902%.
